The results in this text go back to patent US4698352A, “4-oxo-1,4-dihydronicotinic acid derivatives, salts thereof, and antibacterial agents containing the same” (Toyama Chemical Co., Ltd., priority 1982, dated 1987).

Holding throughout (test): Antibacterial activity (MIC), agar dilution
What all share (assay type): cell-based
(In general: In agar dilution the substance is mixed into plates at graded concentrations.)

One experiment deals with Kl. pneumoniae Y-50. The following applies: Klebsiella pneumoniae, Y50, 20 h, 10^6 cells per ml, 37° C., read-out: MIC. An excerpt:
(§1) The amount of bacteria inoculated was 10^4 cells per plate (10^6 cells per ml).

The next experiment has as its system Pro. morganii T-216. The following applies: Morganella morganii, 37° C.
From the text: as §1

Another experiment has as its system Aci. antitratus A-6. As to conditions: 20 h, Aci. antitratus A-6; 10^6 cells per ml; 37° C., 20 hours; read-out: MIC.
From the text: as §1

Another experiment has as its system St. aureus FDA209P. As to conditions: Staphylococcus aureus, FDA209P, 20 h, St. aureus FDA209P; 10^6 cells per ml; 37° C., 20 hours; read-out: MIC.
From the text: as §1

In another experiment the test system is Ps. aeruginosa S-68. As to conditions: Pseudomonas aeruginosa, S68; Ps. aeruginosa S-68; 10^6 cells per ml; 37° C., 20 hours; read-out: MIC.
From the text: as §1

The test system of a further experiment is Ps. aeruginosa IFO3445. As to conditions: Pseudomonas aeruginosa; Ps. aeruginosa IFO3445; 10^6 cells per ml; 37° C., 20 hours; read-out: MIC.
From the text: as §1

The subject of the next experiment is Pro. mirabilis T-111. The following applies: Proteus mirabilis, 37° C.
From the text: as §1

A further experiment deals with Pro. vulgaris GN3027. The following applies: Proteus vulgaris, GN3027, 20 h, Pro. vulgaris GN3027; 10^6 cells per ml; 37° C., 20 hours; read-out: MIC.
From the text: as §1

The test system of the next experiment is Kl. pneumoniae Y-41. The following applies: Klebsiella pneumoniae, Y41, 10^6 cells per ml, 37° C., 20 hours, read-out: MIC.
From the text: as §1

Another experiment deals with Ent. cloacae IID977. As to conditions: Enterobacter cloacae, IID977, 20 h.
From the text: as §1

The next experiment has as its system E. coli NIHJ JC-2. As to conditions: Escherichia coli, NIHJJC2, 20 h, E. coli NIHJ JC-2; 10^6 cells per ml; 37° C., 20 hours; read-out: MIC.
From the text: as §1

The next experiment deals with E. coli TK-111. As to conditions: Escherichia coli, TK111, 20 h, E. coli TK-111; 10^6 cells per ml; 37° C., 20 hours; read-out: MIC.
From the text: as §1

Another experiment concerns Ps. aeruginosa GN918**. The following applies: Pseudomonas aeruginosa, 20 h; Ps. aeruginosa GN918, cephalospolinase-producing; 10^6 cells per ml; read-out: MIC.
From the text: as §1
(§2) ** Cephalospolinase-producing bacteria

In another experiment the test system is Pro. vulgaris GN76**. As to conditions: Proteus vulgaris.
From the text: as §1, §2

A further experiment concerns E. coli GN5482**. As to conditions: Escherichia coli, 20 h; E. coli GN5482, cephalospolinase-producing; 10^6 cells per ml; read-out: MIC.
From the text: as §1, §2

The next experiment has as its system E. coli TK-3*. The following applies: Escherichia coli, 20 h.
From the text: as §1
(§3) * Penicillinase-producing bacteria

The next experiment deals with Ps. aeruginosa GN3379*. The following applies: Pseudomonas aeruginosa, 20 h; Ps. aeruginosa GN3379, penicillinase-producing; 10^6 cells per ml; read-out: MIC.
From the text: as §1, §3

For another experiment, the system named is St. aureus F-137*. As to conditions: Staphylococcus aureus, 20 h, St. aureus F-137, penicillinase-producing; 10^6 cells per ml; read-out: MIC.
From the text: as §1, §3

For another experiment, the system named is Kl. pneumoniae Y-4*. As to conditions: Klebsiella pneumoniae, 20 h, Kl. pneumoniae Y-4, penicillinase-producing; 10^6 cells per ml; read-out: MIC.
From the text: as §1, §3

The mark [1] stands for this setting: 20 h, Pro. vulgaris GN76, cephalospolinase-producing, 10^6 cells per ml, read-out: MIC.
The mark [2] stands for this setting: T216, 10^6 cells per ml, 20 hours, read-out: MIC.
[3] abbreviates: T111, 10^6 cells per ml, 20 hours, read-out: MIC.
Where [4] appears, read: Ent. cloacae IID977, 10^6 cells per ml, 37° C., 20 hours, read-out: MIC.
Setting [5] is: E. coli TK-3, penicillinase-producing, 10^6 cells per ml, read-out: MIC.

≈ marks a conversion by molar mass, not a printed value. Where two headings read alike, the source gives them in different places.

The term MIC denotes the smallest concentration in the dilution series that meets the test's criterion for growth inhibition. For the compound `O=C(O)c1cn(-c2ccc(F)cc2)c(/C=C/c2ccccc2)cc1=O`, the MIC with Kl. pneumoniae Y-50 was 6.25 µg/mL (≈ 18.6 µM); in the experiment with Pro. morganii T-216 (T216, 20 h, 10^6 cells per ml), 12.5 µg/mL (≈ 37.3 µM); with Aci. antitratus A-6 it was 1.56 µg/mL (≈ 4.65 µM); with St. aureus FDA209P, 3.13 µg/mL (≈ 9.33 µM); with Ps. aeruginosa S-68 it was 25 µg/mL (≈ 74.6 µM); in the experiment with Ps. aeruginosa IFO3445 it was 50 µg/mL (≈ 149 µM). The MIC in the experiment on Pro. mirabilis T-111 (T111, 20 h, 10^6 cells per ml) amounted to 12.5 µg/mL (≈ 37.3 µM); in the experiment on Pro. vulgaris GN3027, 0.78 µg/mL (≈ 2.33 µM); in the experiment on Kl. pneumoniae Y-41, 12.5 µg/mL (≈ 37.3 µM); against Ent. cloacae IID977 it was 12.5 µg/mL (≈ 37.3 µM); in the experiment with E. coli NIHJ JC-2 it was 3.13 µg/mL (≈ 9.33 µM); in the experiment with E. coli TK-111, 1.56 µg/mL (≈ 4.65 µM). The MIC was determined as 50 µg/mL (≈ 149 µM) with Ps. aeruginosa GN918**; 3.13 µg/mL (≈ 9.33 µM) with Pro. vulgaris GN76** (setting [1]); 0.39 µg/mL (≈ 1.16 µM) with E. coli GN5482**; 12.5 µg/mL (≈ 37.3 µM) in the experiment on E. coli TK-3*; 25 µg/mL (≈ 74.6 µM) in the experiment with Ps. aeruginosa GN3379*; 3.13 µg/mL (≈ 9.33 µM) in the experiment with St. aureus F-137*. In addition, the minimum inhibitory concentration (MIC) with Kl. pneumoniae Y-4* is 25 µg/mL (≈ 74.6 µM).
Consider `Cc1cc(O)ccc1-n1cc(C(=O)O)c(=O)cc1-c1ccc2c(ccn2C)c1`, for which the MIC in the experiment on Kl. pneumoniae Y-50 is 0.2 µg/mL (≈ 0.534 µM); in the experiment on Pro. morganii T-216 (setting [2]) it was 0.78 µg/mL (≈ 2.08 µM); with Aci. antitratus A-6, ≤ 0.05 µg/mL; with St. aureus FDA209P, ≤ 0.05 µg/mL; in the experiment on Ps. aeruginosa S-68, 3.13 µg/mL (≈ 8.36 µM); in the experiment with Ps. aeruginosa IFO3445, 3.13 µg/mL (≈ 8.36 µM). Also, the MIC in the experiment with Pro. mirabilis T-111 (setting [3]) was 0.78 µg/mL (≈ 2.08 µM); in the experiment with Pro. vulgaris GN3027, 0.1 µg/mL (≈ 0.267 µM); in the experiment with Kl. pneumoniae Y-41, 0.78 µg/mL (≈ 2.08 µM); in the experiment with Ent. cloacae IID977 (setting [4]), 0.39 µg/mL (≈ 1.04 µM); in the experiment with E. coli NIHJ JC-2 it was ≤ 0.05 µg/mL; in the experiment with E. coli TK-111, 0.05 µg/mL (≈ 0.134 µM). Further, the MIC in the experiment with Ps. aeruginosa GN918** is 0.39 µg/mL (≈ 1.04 µM); in the experiment on Pro. vulgaris GN76** (setting [1]), 0.39 µg/mL (≈ 1.04 µM); in the experiment with E. coli GN5482** it was ≤ 0.05 µg/mL; in the experiment with E. coli TK-3* (setting [5]), 0.2 µg/mL (≈ 0.534 µM); in the experiment on Ps. aeruginosa GN3379* it was 6.25 µg/mL (≈ 16.7 µM); in the experiment with St. aureus F-137* it was ≤ 0.05 µg/mL. For the same compound, in the experiment with Kl. pneumoniae Y-4*, the MIC was 0.78 µg/mL (≈ 2.08 µM).
In the case of `CN1CCOc2cc(-c3cc(=O)c(C(=O)O)cn3-c3ccc(O)cc3)ccc21`, the MIC in the experiment with Kl. pneumoniae Y-50 stood at 0.78 µg/mL (≈ 2.06 µM); with Pro. morganii T-216 (setting [2]) it was 1.56 µg/mL (≈ 4.12 µM); with Aci. antitratus A-6 it was 0.78 µg/mL (≈ 2.06 µM); in the experiment with St. aureus FDA209P, 0.39 µg/mL (≈ 1.03 µM); with Ps. aeruginosa S-68, 6.25 µg/mL (≈ 16.5 µM); with Ps. aeruginosa IFO3445, 12.5 µg/mL (≈ 33 µM). The MIC against Pro. mirabilis T-111 (T111, 20 h, 10^6 cells per ml) was determined as 3.13 µg/mL (≈ 8.27 µM); with Pro. vulgaris GN3027 it was 0.39 µg/mL (≈ 1.03 µM); with Kl. pneumoniae Y-41 it was 3.13 µg/mL (≈ 8.27 µM); in the experiment with Ent. cloacae IID977 (setting [4]), 1.56 µg/mL (≈ 4.12 µM); with E. coli NIHJ JC-2, 0.39 µg/mL (≈ 1.03 µM); in the experiment with E. coli TK-111, 0.2 µg/mL (≈ 0.529 µM). Further, the MIC with Ps. aeruginosa GN918** was 6.25 µg/mL (≈ 16.5 µM); against Pro. vulgaris GN76** (GN76, 20 h) it was 3.13 µg/mL (≈ 8.27 µM); in the experiment on E. coli GN5482**, ≤ 0.05 µg/mL; in the experiment with E. coli TK-3* (setting [5]), 0.78 µg/mL (≈ 2.06 µM); in the experiment with Ps. aeruginosa GN3379* it was 12.5 µg/mL (≈ 33 µM); in the experiment with St. aureus F-137*, 0.39 µg/mL (≈ 1.03 µM). For the same compound, the MIC in the experiment with Kl. pneumoniae Y-4* came to 3.13 µg/mL (≈ 8.27 µM).
`CC(=O)Oc1ccc(-n2cc(C(=O)OCCN(C)C)c(=O)cc2-c2ccc3c(ccn3C)c2)c(F)c1`: the MIC was 0.39 µg/mL (≈ 0.793 µM) with Kl. pneumoniae Y-50; 3.13 µg/mL (≈ 6.37 µM) with Pro. morganii T-216 (T216, 20 h, 10^6 cells per ml); 0.39 µg/mL (≈ 0.793 µM) with Aci. antitratus A-6; ≤ 0.05 µg/mL in the experiment with St. aureus FDA209P; 6.25 µg/mL (≈ 12.7 µM) in the experiment with Ps. aeruginosa S-68; 6.25 µg/mL (≈ 12.7 µM) in the experiment on Ps. aeruginosa IFO3445. Besides, the MIC with Pro. mirabilis T-111 (setting [3]) was 1.56 µg/mL (≈ 3.17 µM); with Pro. vulgaris GN3027, 0.1 µg/mL (≈ 0.203 µM); in the experiment on Kl. pneumoniae Y-41, 3.13 µg/mL (≈ 6.37 µM); in the experiment with Ent. cloacae IID977 (setting [4]), 0.78 µg/mL (≈ 1.59 µM); in the experiment with E. coli NIHJ JC-2, 0.1 µg/mL (≈ 0.203 µM); in the experiment with E. coli TK-111, ≤ 0.05 µg/mL. Also, the minimal inhibitory concentration (MIC) was 1.56 µg/mL (≈ 3.17 µM) with Ps. aeruginosa GN918**; 0.78 µg/mL (≈ 1.59 µM) in the experiment on Pro. vulgaris GN76** (setting [1]); ≤ 0.05 µg/mL in the experiment with E. coli GN5482**; 0.39 µg/mL (≈ 0.793 µM) with E. coli TK-3* (setting [5]); 12.5 µg/mL (≈ 25.4 µM) in the experiment with Ps. aeruginosa GN3379*; ≤ 0.05 µg/mL in the experiment on St. aureus F-137*. The MIC in the experiment with Kl. pneumoniae Y-4* stood at 3.13 µg/mL (≈ 6.37 µM).
